# Patent publication US9101569B2, “Methods for the treatment of insulin resistance” (UNIVERSITE DE GENEVE, priority 2010, dated 2015)
# How the values were obtained:
# [1] = tested on: epididymal white adipose tissue (eWAT); assay: eWAT endocannabinoid content after i.c.v. OT infusion; assay type: in vivo, rat
# wild-type mice = assay: Peripheral OT infusion in wild-type littermate mice; assay type: in vivo; details: peripheral 50 nmol/day over 3 days
# Protocol: The beneficial metabolic effects of OT administration were assayed in the same high-fat diet induced obesity model in rats as in Example 1 and in PPAR-alpha knockout mice (Lee et al., 1995, Mol. Cell. Biol., 15(6):3012-22). HFD-induced obese animals, saline or OT groups (see conditions under Example 1) were subcutaneously infused via minipumps (Alzet®, as above). OT was delivered at a dose of 50 nmol/day/rat during 14 days.
# OT was peripherally administered with 50 nmol/day over 3 days in PPAR-alpha knockout (KO) mice and their wild-type littermates. […] Consistently, OT peripheral infusion promoted an increase in the mRNA expression of PPAR-alpha target genes (Acadm, Acox1, Ehhadh, Ucp3) in wild-type mice, while it had no effect in PPAR-alpha knockouts.
# HFD-induced obese rats [2] = assay: Glucose tolerance tests after i.c.v. OT infusion; assay type: in vivo, rat; details: after 7 weeks of HFD, i.c.v. 1.6 nmol/d
# Protocol: The impact of OT-induced changes in peripheral lipid metabolism on glucose tolerance and insulin sensitivity was determined by glucose tolerance tests (GTT). Glucose (75 mg/kg body weight) was intraperitoneally administered 4 h after food removal. Blood glucose levels were measured using a glucose meter (One Touch II; LifeScan) from tail blood samples at 0, 15, 30, 60, 90, and 120 min after glucose injection.
# Two glucose tolerance tests (GTT) were performed, a first one after […] of HFD (i.e. before the respective saline and OT treatments) and a second one at the end of the 2 week saline or OT infusion (i.e. after 7 weeks of HFD).
# HFD-induced obese rats [3] = assay: High-fat diet-induced obesity rat model, subcutaneous infusion: body weight gain, food intake, body composition; assay type: in vivo; details: s.c. OT 50 nmol/day, 10 days, independent of food intake
# HFD-induced obese rats [4] = assay: Plasma glycerol after subcutaneous OT infusion in HFD-induced obese rats; assay type: in vivo, rat; details: peripheral (s.c.) OT 50 nmol/day
# Protocol: Another group of the above male Wistar rats were rendered obese as described above and were subcutaneously infused with saline or OT (NeoMPS®, Strasbourg, France) (50 nmol/day/rat) during 14 days.
# To determine the effect of OT on peripheral metabolism, levels of plasma glucose, insulin, leptin, FFA, glycerol and TG were determined. Plasma glucose was measured by the glucose oxidase method (Glu, Roche Diagnostics GmbH, Rotkreuz, Switzerland). Plasma non-esterified fatty acid (NEFA) and triglyceride (TG) levels were determined using NEFA C and TG enzymatic PAP150 commercial kits from Wako Chemicals GmbH (Neuss, Germany) and Biomérieux (Marcy l'Etoile, France), respectively. Plasma OT levels were determined using an ELISA, as previously described (Pequeux et al., 2001, Scand. J. Clin. Lab. Invest., 61, 407-415). Plasma glycerol levels were measured using the free Glycerol Reagent (Sigma).
# [5] = tested on: differentiated 3T3-L1 adipocytes; assay: Lipid metabolism in differentiated 3T3-L1 adipocytes in vitro; assay type: cell-based, Murine; details: 24 h incubation, 5 μM OT
# Protocol: The in vitro effect of OT on lipid metabolism in differentiated 3T3-L1 adipocytes was assayed as follows. Murine 3T3-L1 fibroblasts were differentiated towards a […] phenotype as previously described (Olson et al., 1997, Mol. Cell. Biol., 2425-2435). In brief, cells were cultured in Dulbecco's modified eagle medium (DMEM) with 4.5 g/l glucose supplemented with 10% heat-inactivated depleted calf serum (DCS) at 37° C./8% CO2. Cells were induced to differentiate, two days post confluence, by sequential incubations with: DMEM 4.5 g/l glucose, 10% fetal bovine serum (FCS) containing 1 μg/ml insulin, 0.25 μM dexamethasone and 0.5 mM isobutylmethylxanthane (IBMX) for 4 days; DMEM 4.5 g/l glucose, 10% FCS containing insulin alone for an additional 4 days; DMEM 4.5 g/l glucose, 10% FCS for 3-4 days. Differentiation was considered achieved when more than 90% of cells display an accumulation of large lipid droplets in their cytoplasm.
# [6] = tested on: enzymes involved in lipid metabolism; assay: Tissue expression of lipid metabolism enzymes (real-time RT-PCR) after i.c.v. OT infusion; assay type: in vivo, rat
# Protocol: To delineate the mechanisms responsible for the effect on peripheral metabolism, the expression of enzymes involved in lipid metabolism was analyzed in adipose tissues (epididymal white and interscapular brown adipose tissues). Total RNAs were extracted from frozen tissue using a single-step extraction with Trizol reagent (Sigma-Aldrich, Buchs, Switzerland). RNA integrity was assessed by electrophoresis on a 1% agarose gel and concentration was determined by spectrophotometry. An amount of 2.5 μg of total RNAs was used for RT using random hexamers (Microsynth, Geneva, Switzerland), dNTPs (Promega Corporation, Madison, Wis., USA), RNasin as an RNase inhibitor (Promega Corporation) and the Moloney Murine Leukemia Virus Reverse Transcriptase (M-MLV-RT) enzyme kit (Invitrogen, Basel, Switzerland). For quantitative PCR (qPCR), amplification of genes was performed from 6.25 or 12.5 ng cDNA, using the SYBR® green PCR Master Mix (Applied Biosystems, Warrington, UK) and an ABI7500 machine (Applied Biosystems, Foster City, Calif.). All the primers were designed (FIG. 9, Table 1) with the PrimerExpress software (http://phym.unige.ch/) and used at a concentration of 200 to 300 nM for qPCR. Results were normalized to the expression levels of the housekeeping gene, ribosomal protein S29 (RPS29).
# [7] = interscapular brown adipose tissue (BAT), i.c.v. OT
structure (smiles),measurement,setting,value
"CC[C@H](C)[C@@H]1NC(=O)[C@H](Cc2ccc(O)cc2)NC(=O)[C@@H](N)CSSC[C@@H](C(=O)N2CCC[C@H]2C(=O)N[C@@H](CC(C)C)C(=O)NCC(N)=O)NC(=O)[C@H](CC(N)=O)NC(=O)[C@H](CCC(N)=O)NC1=O [OT, Cys-Tyr-Ile-Gln-Asn-Cys-Pro-Leu-Gly (SEQ ID NO: 1)]",eWAT OEA content,"[1]; chronic i.c.v. OT 1.6 nmol/d, compared with saline",increased
same,"eWAT content of other endocannabinoids (PEA, AEA, 2-AG)",[1]; chronic i.c.v. OT infusion,not modifying
same,stimulatory effect on OEA content,[1]; i.c.v. 1.6 nmol/d (lower dose),1.3 folds
same,stimulatory effect on OEA content,[1]; i.c.v. 16 nmol/d,2 folds
same,body weight gain,wild-type mice,significant decrease
same,"mRNA expression of PPAR-alpha target genes (Acadm, Acox1, Ehhadh, Ucp3)",wild-type mice,increase
same,insulin oversecretion during GTT,HFD-induced obese rats [2],not observed
same,glucose tolerance (GTT),HFD-induced obese rats [2]; compared to GTT after 3 weeks of HFD,impairment
same,fat mass (QMR),HFD-induced obese rats [3],significant decrease
same,percent lean body mass (QMR),HFD-induced obese rats [3],increase
same,plasma glycerol levels,HFD-induced obese rats [4],increased
same,OEA content,[5],increased
same,PPAR-alpha mRNA expression,[5],stimulatory effect
same,mRNA expression of all the lipid metabolism-related genes affected by central OT infusion,[5],increased
same,Scd1 mRNA expression,[5]; relative to effect in centrally infused rats,less marked
same,mRNA expression of PPAR-alpha and its target genes,"[6]; BAT, OT infusion (16 nmol/d experiment)",significantly increased
same,Acaca mRNA expression,"[6]; eWAT, i.c.v. 1.6 nmol/d",did not modify
same,Acadm mRNA expression,"[6]; eWAT, i.c.v. 1.6 nmol/d",increased
same,Acox1 mRNA expression,"[6]; eWAT, i.c.v. 1.6 nmol/d",increased
same,Dgat1 mRNA expression,"[6]; eWAT, i.c.v. 1.6 nmol/d",did not modify
same,Ehhadh mRNA expression,"[6]; eWAT, i.c.v. 1.6 nmol/d",increased
same,Fasn mRNA expression,"[6]; eWAT, i.c.v. 1.6 nmol/d",did not modify
same,HSL mRNA expression,"[6]; eWAT, i.c.v. 1.6 nmol/d",increased
same,Lpl mRNA expression,"[6]; eWAT, i.c.v. 1.6 nmol/d",increase
same,Pnpla2 mRNA expression,"[6]; eWAT, i.c.v. 1.6 nmol/d",increased
same,Scd1 mRNA expression,"[6]; eWAT, i.c.v. 1.6 nmol/d",marked increase
same,Ucp3 mRNA expression,"[6]; eWAT, i.c.v. 1.6 nmol/d",enhanced
same,PPAR-alpha mRNA,"[6]; eWAT, i.c.v. 16 nmol/d",did not modify
same,"expression of PPAR-alpha target genes (Acadm, Acox1, Ehhadh, Ucp3)","[6]; eWAT, i.c.v. 16 nmol/d, food intake-independent",increases
same,stimulatory effect on Scd1 mRNA expression,[6]; i.c.v. 1.6 nmol/d (lower dose),4.2 folds
same,stimulatory effect on Scd1 mRNA expression,[6]; i.c.v. 16 nmol/d,5.6 folds
same,PPAR-alpha expression,[6]; [7],significantly increased
same,expression of the main enzymes involved in fatty acid β-oxidation,[6]; [7],significantly increased
same,expression of genes involved in fatty acid β-oxidation,"[6]; skeletal muscle, central OT infusion",did not modify
